According to patent US20120277265A1, “NOVEL POLYQUINOLINE DERIVATIVES AND THE THERAPEUTIC USE THEREOF” (CENTRE NATIONAL DE LA RECHERCHE SCIENTIFIQUE (C.N.R.S.), priority 2005, published 2012):

Tests used:
[1] = biological target: T1, copper complexes of Aβ1-42 peptide (Homo sapiens, UniProt P05067); assay: Stability of H2O2 during the H2O2 production inhibition experiments (known amount of H2O2 added); type: biochemical; details: Aβ1-42 0.2 μM, Cu(II) 0.4 μM, ascorbate 10 μM, ligand 0.4 μM
T1 construct: The β-amyloid peptide Aβ1-42 (Aβ1-42) was synthesised, purified (to a purity greater than 95%); made in house; host or cells: chemical peptide synthesis (no expression host)
T1 sequence (P05067 672-713 limits assumed, one chain of several): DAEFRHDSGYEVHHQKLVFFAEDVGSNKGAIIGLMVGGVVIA
Experimental: (§1) The final concentrations are given. The reactions were carried out in the dark in mM sodium phosphate buffer (pH=7.4). Aβ1-42 (0.2 μM) and CuCl2 (0.4 μM) were pre-incubated for 1 hour at 37° C. while stirring at 1,400 rpm in 375 μl of buffer. Then 2 μl of a solution of ligand to be investigated (0.2; 0.4 or 0.8 μM) in DMSO were added. After incubation for a further hour, 2 μl of an aqueous sodium ascorbate solution (10 μM) were added and incubation was continued for 5 min while stirring. The amount of H2O2 produced is then quantified using an Amplex Red H2O2/HRP Assay Kit (Molecular Probes) while adding a volume of assay reagent to the samples, then incubating them for 1 hour at 37° C. while stirring at 500 rpm. H2O2 is then detected by spectrophotometry at 563 nm. Quantification is carried out on the basis of standard curves obtained with known amounts of H2O2.
(§2) Experiments were also carried out in the presence of a known amount of H2O2, added just before or just after the addition of sodium ascorbate, in order to investigate the stability of H2O2 under the experimental conditions employed.

[2] = tested on: copper complexes of Aβ1-42 peptide; assay: as above; type: biochemical; details: for theoretical value of H2O2 if there is no degradation (in parentheses): ascorbate, ligand; for H2O2 assayed: no Aβ1-42, Cu(II) 0.4 μM, ligand 0.4 μM
Experimental: as §1, §2

[3] = tested on: TA98 and TA100 Salmonella strains; assay: AMES test, statements on both lines; details: adapted Ames test, TA98 and/or TA100, absence or presence of S9
Text: AMES test: The method is adapted from D. M. Maron and B. N. Ames, Mutat.
The test involves evaluating the potential of the tested molecules to induce mutation which is reverse to the histidine locus of these lines. These two lines were provided by Dr. Bruce N. Ames (University of California, Berkeley, USA). They are resistant to Ampicillin and sensitive to Tetracycline. They are not mutant toward rfa, UvγV and UvγA. The line TA98 (his D3052) contains a mutation of reading phase (GC) whereas the line TA100 (his G46) contains a substitution of base pair (GC).
The compounds to be tested were dissolved in 100% of DMSO (the solvent) and diluted logarithmically (by a factor of 10) so as to obtain 4 test concentrations of 30,000; 3,000; 300 and 30 μg/ml. Each series of 0.1 ml of stock solution to be tested, 0.1 ml of test line and of culture medium with or without 0.5 ml of enzymatic homogenate (S9) of rat liver microsome were mixed with 2 ml of molten agarose (containing 0.5 mM of histidine and 0.5 mM of biotin). This mixture was placed on the surface of a plate of minimal agarose glucose medium (30 ml for each Petri dish) so as to obtain final concentrations of compound to be tested of 3,000; 300; 30 and 3 μγ/plate. The plates were then incubated at 37° C. for 48 hours. […] The revertant colonies of the test lines were counted using a colony counter (Sigma). […]

[4] = Number of ZnCl2 equivalents for the ligand to be entirely in the form of Zn(II) complex; type: binding; details: competition with the tris buffer and the DMSO
[5] = 3.0 nanomoles H2O2 added just after ascorbate
[6] = Aβ1-42 0.2 μM, Cu(II), 3.0 nanomoles H2O2 added just after ascorbate

SMILES | H2O2 assayed [1, 5] | H2O2 assayed ([1]; 3.0 nanomoles H2O2 added just before the ascorbate) [nmol] | H2O2 assayed ([1]; no H2O2 added) [nmol] | theoretical value of H2O2 if there is no degradation (in parentheses) [2, 6] | theoretical value of H2O2 if there is no degradation (in parentheses) ([2]; Aβ1-42 0.2 μM, Cu(II), 3.0 nanomoles H2O2 added just before the ascorbate) [nmol] | H2O2 assayed ([2]; ascorbate 10 μM, 3.0 nanomoles H2O2 added just after ascorbate) | H2O2 assayed ([2]; ascorbate 10 μM, no H2O2 added) [nmol] | H2O2 assayed ([2]; no ascorbate, 3.0 nanomoles H2O2 added) [nmol] | theoretical value of H2O2 if there is no degradation (in parentheses) ([2]; no Aβ1-42, Cu(II), 3.0 nanomoles H2O2 added just after ascorbate) | mutagenic or bactericidal effect [3] | degradation of added H2O2 ([2]; Table 7 conditions) | number of ZnCl2 equivalent for 15 μM of ligand to be entirely in the form of Zn(II) complex [4] [eq ZnCl2]
CC(C)(c1ccc2cccc(O)c2n1)c1ccc2cccc(O)c2n1 [Compound 3, 2,2′-(2,2-propanediyl)-bis(8-hydroxyquinoline)] | 3.7 (3.7) nanomoles | 3.8 | 0.71 ± 0.02 | 3.7 (3.7) nanomoles | 3.7 | 3.8 (3.8) nanomoles | 0.84 | 3.1 | 3.8 (3.8) nanomoles | no mutagenic or bactericidal effect | – | –
c1cnc2c(Nc3cccc4cccnc34)cccc2c1 [Compound 12, Bis(8-quinoline)amine] | 1.7 nmol | – | 0.47 ± 0.09 | 3.4 nmol | – | – | – | – | – | – | none of the added H2O2 is found again | 100
CC(C)(c1ccc2c(Cl)ccc(O)c2n1)c1ccc2c(Cl)ccc(O)c2n1 [Compound 4, 2,2′-(2,2-Propanediyl)-bis(5-chloro-8-hydroxyquinoline)] | 3.3 nmol | – | 0.37 ± 0.09 | 3.4 nmol | – | – | – | – | – | – | – | –
Oc1cccc2ccc(C(F)(F)c3ccc4cccc(O)c4n3)nc12 [Compound 5, 2,2′-(Difluoromethanediyl)-bis(8-hydroxyquinoline)] | 3.4 nmol | – | 0.55 ± 0.08 | 3.5 nmol | – | – | – | – | – | – | – | –
O=C(c1ccc2cccc(O)c2n1)c1ccc2cccc(O)c2n1 [Compound 6, Bis(8-hydroxy-2-quinoline)methanone] | 3.6 nmol | – | 0.87 ± 0.11 | 3.9 nmol | – | – | – | – | – | – | – | –
